Values after ≈ are worked out from the molar mass of the structure shown.
Experiments:
Format in all cases: functional
[1] = test system: Staphylococcus aureus; assay: Antibacterial activity against Staphylococcus aureus after 18 hrs by conventional 2 fold serial dilution method
[2] = test system: Staphylococcus aureus; assay: Antibacterial activity against methicillin-resistant Staphylococcus aureus after 18 hrs by conventional 2 fold serial dilution method
[3] = test system: Staphylococcus aureus; assay: Antibacterial activity against multidrug-resistant Staphylococcus aureus after 18 hrs by conventional 2 fold serial dilution method

C[C@H](O)[C@H](Cl)C1=C[C@H](O)[C@@H](C)OC1=O [CHLOROHYDROASPYRONE A]
MIC [1]: 62.5 µg/mL (≈ 283 µM) | MIC [2]: 125 µg/mL (≈ 567 µM) | MIC [3]: 125 µg/mL (≈ 567 µM)

C[C@H](Cl)[C@@H](O)C1=C[C@H](O)[C@@H](C)OC1=O [CHLOROHYDROASPYRONE B]
MIC [1]: 62.5 µg/mL (≈ 283 µM) | MIC [2]: 62.5 µg/mL (≈ 283 µM) | MIC [3]: 125 µg/mL (≈ 567 µM)

Source: ChEMBL document CHEMBL1156551, “Chlorohydroaspyrones A and B, antibacterial aspyrone derivatives from the marine-derived fungus Exophiala sp” (2008)
